Laboratory results as given in patent US20190112578A1, “Derivation and Self-Renewal of Multipotent Cells and Uses Thereof” (IsletOne AB, priority 2016, published 2019).

How the values were obtained:
Assay type in all cases: cell-based
[1] = tested on: embryonic rat cardiac mesenchymal stem cells and rat bone marrow; assay: Derivation of Isl1+ cells from rat mesenchymal stem cells on laminins in Wnt-medium (Isl1 immunostaining); settings: on LN-521 in combination with hypoxia, two weeks in culture (5 passages)
Description: In order to further improve feeder free culturing systems where the origin and expansion of multipotent cells could be followed, the inventors synthesized a plasmid construct comprising parts of the Isl1-promotor region linked to the fluorescent marker green fluorescent protein (GFP). The plasmid was introduced into the cells by means of electroporation. Mesenchymal cells (i) derived from rat embryonic hearts, (ii) obtained from rat bone marrow, (iii) obtained from the bone marrow of young healthy donors, (iv) obtained from human cord blood and other types of perinatal tissue, (v) isolated from human amniotic sources, (v) isolated from human adult cardiac tissue were labeled with the Isl1 gene construct concomitant to the addition of Wnt-containing medium (100 ng/ml Wnt-3a and […] BIO). […] In culture the cells grew to confluency and were passaged every other day. At each passage, cells were analysed immunohistochemically for the expression of Isl1.
For each experiment 10 pregnant sprague-dawley rats (gestational day, GD, 13 to 14) were used. The rats were euthanized in a CO2 chamber after which the whole embryos (approximately 10 embryos/rat) were removed through a low midline abdominal incision. From each embryo the heart was removed under microscope, minced into small pieces and rinsed repetitively with Hank's buffered salt solution (HBSS) (GibcoBRL, NY, USA). […]

multipotent cells (MSCs) = assay: Growth curves of multipotent cells (MSCs); settings: LN-521 under hypoxia versus standard conditions (plastic under normoxia)
Description: Cells can be grown under hypoxic conditions using a variety of methods. Normally, hypoxic conditions for cell culturing are defined as culturing of cells in an atmosphere containing 5% or less of oxygen.

Isl1 cells = assay: qRT-PCR of multipotency and differentiation markers in cells grown under various conditions; settings: LN-521 under hypoxia versus LN-521 normoxia, plastic hypoxia

LN-521: laminin heterotrimeric glycoprotein comprising an α5 chain, coated on cell culture plastic
cells expressing Isl1 [1]: 80±15%
proliferation (growth curve) (multipotent cells (MSCs)): significantly faster
Isl1, KDR and Nkx_2_5 mRNA transcripts (Isl1 cells): significantly higher
Troponin T2 transcripts (Isl1 cells): lower
